Measured values taken from patent US6479472B1, “Methods of using therapeutic phospholipid derivatives” (Asta Medica Aktiengesellschaft, priority 1993, dated 2002).
Where a name gives a salt, the structure may show the parent alone.

How the values were obtained:
[1] = tested on: DMBA-induced mammary carcinomas; test: DMBA-induced mammary carcinoma model, oral treatment, tumor weight by palpation (Experiment 1); assay type: in vivo, female Sprague-Dawley rats; conditions: for efficacy of standard cytostatics: DMBA-induced mammary carcinomas in test rats
Excerpt: The first tumor appeared approximately one month after feeding the subject rats with DMBA. Tumor weights were estimated on the basis of tumor volume. This was accomplished by palpating tumors and comparing the volumes of the palpated tumors with the volumes of prefabricated plasticine models in the manner taught by Druckrey, et al., “Experimentelle Beiträge zum Dosis-Problem in der Krebs-Chemotherapie und zur Wirkungsweise von Endoxan, Dtsch. Med. Wschr., 88:651 (1963). Each of the relevant plasticine models was then weighed and converted to a tumor weight by means of a factor reflecting the relationship between the specific weight of each tumor tissue and its corresponding plasticine model. […] A statistical evaluation of the resulting data indicated a correlation coefficient of 0.98. Test rats having a total tumor weight of approximately 1 g were randomly allocated amongst various dosage and control groups, each group having a total of 6-7 rats. In this way, the inventors were able to ensure an approximately equal distribution amongst the experimental groups of tumors having different latencies, total tumor weight and numbers of tumor nodes. […] The control group was given tap water in accordance with the same schedule. […] During the observation period, tumor weights were determined for each of the test rats at regular intervals. The test rats were all housed under specific pathogen free (SPF) conditions with unrestricted water supply (acidified to pH 3) and standard pellet lab chow (Altromin 1324). […] J. Oncol., 2:161 (1993).

[2] = tested on: DMBA-induced mammary carcinomas / KB implanted tumors; test: Summary statement on Experiments 1 and 2 (DMBA and KB tumor models, model not told per compound); assay type: in vivo, rats / mice; conditions: for GII (growth inhibition index): specified dosage regimens, model not given, GII>100% = tumor regression; for tumor remission: model and regimen not given
Procedure: The inventors induced mammary carcinomas in female Sprague-Dawley rats (Mollegaard Breeding Center, DK-4236 Ejby) aged 50 days by administering a single dose of 20 mg 7,12-dimethylbenz(a)anthracene (DMBA) dissolved in 1 ml of olive oil to each rat by gavage. The first tumor appeared approximately one month after feeding the subject rats with DMBA.
(§1) The inventors used female, nu/nu mice (strain NMRI) aged 9-10 weeks and weighing 21-29 g (Breeder: Bomholtgard Breeding and Research Center, DK-8680 Ry) for testing. Tumor fragments consisting of the human KB tumors (ATCC; Rockville, Md.; cell line ATCC CCL 17 KB, human epidermoid larynx tumors), and having an average diameter of 2 mm, were implanted subcutaneously into the right side of the test mice.
Results from Experiments 1 and 2 were calculated and expressed in accordance with the growth inhibition index (GII) described in Voegeli, et al., “Selective cytostatic activity of Hexadecylphosphocholine against tumor cells in vitro leads to the establishment of an in vivo screening system for phospholipid analogues,” Int. J. Oncol., 2:161 (1993). The GII values from Experiments 1 and 2 are detailed in Table 1 below.

[3] = tested on: human KB tumors (ATCC CCL 17 KB, human epidermoid larynx tumors); test: KB tumor model, subcutaneous implants in nude mice, oral treatment (Experiment 2); assay type: in vivo, female nu/nu mice (strain NMRI); conditions: for efficacy of standard cytostatics: KB implanted tumors in test mice
Excerpt: as §1
The test mice were randomly assigned to various treatment and control groups.
Tumor weights were estimated by first palpating the tumors and then comparing the volumes of the palpated tumors with the volumes of prefabricated plasticine models according to Druckrey, et al., “Experimentelle Beiträge zum Dosis-Problem in der Krebs-Chemotherapie und zur Wirkungsweise von Endoxan, Dtsch. Med. Wschr., 88:651 (1963). After determining the weight of the models, the inventors converted each of these values to a tumor weight by determining the relationship between the specific weight of each tumor tissue and its corresponding plasticine model. To ensure the accuracy of this method, the inventors simultaneously estimated the weights of 99 individual tumors by both palpation and direct weighing of extirpated tumors.
Once the KB tumor implants attained a weight of approximately 0.2 g, the inventors commenced therapy with the compounds of Examples 1, 8, 17, 21, 22, 24 and 25 of the subject application. Each compound was dissolved in 0.9% NaCl and administered per os (stomach tube) in accordance with the regimen schedules detailed in Graphs 10-17 hereinbelow. The control mice were treated with the vehicle alone.
During the observation period, tumor weights were determined for each of the test mice at regular intervals.
The test mice were all housed under specific pathogen free (SPF) conditions with unrestricted water supply (acidified to pH 3) and standard pellet lab chow (Altromin 1324).

[4] = 4 × 100 mg/kg per os, treatment day 0, 3, 7, 10, >100 = tumor regression
[5] = 2 × 316 mg/kg per os, treatment day 0, 7

CCCCCCCCCCCCCCCCOP(=O)([O-])OCC1CCC[N+]1(C)C (centres unmarked) [Example 20, Hexadecyl (1,1-dimethylpyrrolidinio-2-yl)methyl phosphate]
DMBA (G.I.I. %) [1, 4]: 99% | GII (growth inhibition index) [2]: 100%

CCCCCCCCCCCCCCCCOP(=O)([O-])OC1CC2CCC(C1)[N+]2(C)C (centres unmarked) [Example 24, Hexadecyl 1,1-dimethyltropanio-4-yl phosphate]
KB (G.I.I. %) ([3]; 2 × 215 mg/kg per os, treatment day 0, 7): 108%

CCCCCCCCCCCCCCCCCCOP(=O)([O-])OC1CC[N+](C)(C)C1 (centres unmarked) [Example 17, Octadecyl 1,1-dimethylpyrrolidinio-3-yl phosphate]
KB (G.I.I. %) ([3]; 2 × 100 mg/kg per os, treatment day 0, 7): 90%

O=P1(N(CCCl)CCCl)NCCCO1 (centres unmarked) [Cyclophosphamide, reference compound]
efficacy of standard cytostatics [1]: relatively ineffective | efficacy of standard cytostatics [3]: relatively ineffective

CCCCCCCCCCCCCCCCCCOP(=O)([O-])OCC1CCCC[N+]1(C)C (centres unmarked) [Example 8, Octadecyl (1,1-dimethylpiperidinio-2-yl)methyl phosphate]
DMBA (G.I.I. %) [1, 4]: 125% | KB (G.I.I. %) [3, 5]: 100% | GII (growth inhibition index) [2]: 100%

CCCCCCCCCCCCCCCCCCOP(=O)([O-])OCC1CCC[N+]1(C)C (centres unmarked) [Example 21, Octadecyl (1,1-dimethylpyrrolidinio-2-yl)methyl phosphate]
DMBA (G.I.I. %) [1, 4]: 116% | KB (G.I.I. %) [3, 5]: 106% | tumor remission [2]: complete disappearance of tumors

CCCCCCCCCCCCCCCCCCOP(=O)([O-])OC1CC[N+](C)(C)CC1 [Example 1, 4-(((Octadecyloxy)hydroxyphosphenyl)oxy)-1,1-dimethylpiperidinium hydroxide internal salt]
DMBA (G.I.I. %) [1, 4]: 119% | DMBA (G.I.I. %) ([1]; 14 × 31.6 mg/kg per os, treatment day 0-13): 108% | DMBA (G.I.I. %) ([1]; 28 × 68.1 mg/kg per os, 'large tumors', treatment day 0-27): 137% | KB (G.I.I. %) ([3]; 1 × 511 mg/kg per os, treatment day 0): 103% | tumor remission [2]: complete disappearance of tumors

CCCCCCCCCCCCCCCCOP(=O)([O-])OC1C[N+]2(C)CCC1CC2 (centres unmarked) [Example 22, Hexadecyl 1-methylquinuclidinio-3-yl phosphate]
DMBA (G.I.I. %) [1, 4]: 105% | KB (G.I.I. %) ([3]; 2 × 383 mg/kg per os, treatment day 0, 7): 102%

CCCCCCCCCCCCCCCCCCOP(=O)([O-])OC1CCC[N+](C)(C)CC1 (centres unmarked) [Example 13, Octadecyl 1,1-dimethylhexahydroazepinio-4-yl phosphate]
DMBA (G.I.I. %) ([1]; 1 × 511 mg/kg per os, 'large tumors', treatment day 0): 145% | DMBA (G.I.I. %) ([1]; 14 × 46.4 mg/kg per os, treatment day 0-13): 129%

COc1cccc2c1C(=O)c1c(O)c3c(c(O)c1C2=O)C[C@@](O)(C(=O)CO)C[C@@H]3O[C@H]1C[C@H](N)[C@H](O)[C@H](C)O1 [Adriamycin, reference compound]
efficacy of standard cytostatics [1]: relatively ineffective | efficacy of standard cytostatics [3]: relatively ineffective

CCCCCCCCCCCCCCCCCCOP(=O)([O-])OC1CC2CCC(C1)[N+]2(C)C (centres unmarked) [Example 25, Octadecyl 1,1-dimethyltropanio-4-yl phosphate]
KB (G.I.I. %) [3, 5]: 110% | tumor remission [2]: complete disappearance of tumors

CCCCCCCCCCCCCCCCCCOP(=O)([O-])OCC1CCC[N+](C)(C)C1 (centres unmarked) [Example 10, Octadecyl (1,1-dimethylpiperidinio-3-yl)methyl phosphate]
KB (G.I.I. %) [3, 5]: 99% | GII (growth inhibition index) [2]: 100%

N.N.[Cl][Pt][Cl] [Cisplatin, reference compound]
efficacy of standard cytostatics [1]: relatively ineffective | efficacy of standard cytostatics [3]: relatively ineffective
